Like-named read-outs stand apart in the source and are kept apart here.
Tests used:
hDHFR = molecular target: T1, hDHFR (Homo sapiens, UniProt P00374); assay: biochemical
T1 sequence (P00374 1-187): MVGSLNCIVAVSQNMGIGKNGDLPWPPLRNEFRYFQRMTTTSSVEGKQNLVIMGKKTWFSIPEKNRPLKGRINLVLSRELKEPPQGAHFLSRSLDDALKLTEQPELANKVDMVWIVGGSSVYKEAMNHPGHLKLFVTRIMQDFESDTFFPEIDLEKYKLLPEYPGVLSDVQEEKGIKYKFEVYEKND

[1] = test system: T. brucei bloodstream forms; assay: Activity toward T. brucei bloodstream forms; assay type: cell-based, T. brucei brucei Lister 427; settings: for EC50: Trypanosoma brucei, 72 h
TbPTR1 = molecular target: T2, TbPTR1 (Trypanosoma brucei brucei, UniProt O76290); assay: TbPTR1 inhibition assay
T2 sequence (O76290 1-268): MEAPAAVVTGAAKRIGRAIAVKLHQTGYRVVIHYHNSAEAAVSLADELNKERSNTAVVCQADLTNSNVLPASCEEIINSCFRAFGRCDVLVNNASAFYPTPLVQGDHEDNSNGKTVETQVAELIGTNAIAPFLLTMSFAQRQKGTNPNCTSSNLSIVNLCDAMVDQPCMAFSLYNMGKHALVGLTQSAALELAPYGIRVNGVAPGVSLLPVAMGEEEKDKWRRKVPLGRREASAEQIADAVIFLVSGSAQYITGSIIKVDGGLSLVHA

[2] = test system: L. infantum promastigotes; assay: L. infantum promastigotes viability assay; assay type: cell-based, L. infantum MHOM/TN/80/IPT1; settings: Leishmania infantum, 72 h, read-out: L. infantum EC50 (μM)
TbTS = TbTS (Trypanosoma brucei brucei, UniProt Q27783); assay: TbDHFR-TS inhibition assay versus the TS domain; assay type: biochemical
Chain of TbTS (Q27783 whole entry, the tested form may be a part): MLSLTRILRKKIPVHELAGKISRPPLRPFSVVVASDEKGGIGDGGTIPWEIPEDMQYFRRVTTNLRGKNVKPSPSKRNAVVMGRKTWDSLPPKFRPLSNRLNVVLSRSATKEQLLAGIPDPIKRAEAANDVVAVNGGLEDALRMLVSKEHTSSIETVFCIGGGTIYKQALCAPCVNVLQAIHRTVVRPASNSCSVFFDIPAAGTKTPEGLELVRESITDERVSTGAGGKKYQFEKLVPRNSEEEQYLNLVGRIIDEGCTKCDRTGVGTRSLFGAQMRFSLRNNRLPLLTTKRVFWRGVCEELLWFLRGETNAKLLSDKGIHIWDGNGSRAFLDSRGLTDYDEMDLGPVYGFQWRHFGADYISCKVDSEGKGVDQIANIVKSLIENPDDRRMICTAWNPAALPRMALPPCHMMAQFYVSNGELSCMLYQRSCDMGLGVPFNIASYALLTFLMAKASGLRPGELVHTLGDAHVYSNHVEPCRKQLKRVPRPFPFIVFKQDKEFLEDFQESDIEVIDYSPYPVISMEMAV

hTS = hTS (Homo sapiens, UniProt P04818); assay: hTS inhibition assay; assay type: biochemical
Chain of hTS (P04818 whole entry): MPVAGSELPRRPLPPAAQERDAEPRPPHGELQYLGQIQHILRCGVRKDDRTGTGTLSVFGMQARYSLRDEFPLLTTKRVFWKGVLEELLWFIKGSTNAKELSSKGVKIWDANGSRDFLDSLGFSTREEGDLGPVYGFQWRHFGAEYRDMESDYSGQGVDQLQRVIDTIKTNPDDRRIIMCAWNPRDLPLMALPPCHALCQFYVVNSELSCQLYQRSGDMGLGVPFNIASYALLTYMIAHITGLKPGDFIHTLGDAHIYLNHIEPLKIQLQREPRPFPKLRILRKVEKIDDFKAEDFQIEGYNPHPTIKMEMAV

TbDHFR = TbDHFR (Trypanosoma brucei brucei, UniProt Q27783); assay: biochemical
Chain of TbDHFR (Q27783 whole entry): as the sequence (Q27783 whole entry, the tested form may be a part) above

LmDHFR = LmDHFR (Leishmania major, UniProt P07382); assay: LmDHFR inhibition assay; assay type: biochemical, L. major
Chain of LmDHFR (P07382 whole entry): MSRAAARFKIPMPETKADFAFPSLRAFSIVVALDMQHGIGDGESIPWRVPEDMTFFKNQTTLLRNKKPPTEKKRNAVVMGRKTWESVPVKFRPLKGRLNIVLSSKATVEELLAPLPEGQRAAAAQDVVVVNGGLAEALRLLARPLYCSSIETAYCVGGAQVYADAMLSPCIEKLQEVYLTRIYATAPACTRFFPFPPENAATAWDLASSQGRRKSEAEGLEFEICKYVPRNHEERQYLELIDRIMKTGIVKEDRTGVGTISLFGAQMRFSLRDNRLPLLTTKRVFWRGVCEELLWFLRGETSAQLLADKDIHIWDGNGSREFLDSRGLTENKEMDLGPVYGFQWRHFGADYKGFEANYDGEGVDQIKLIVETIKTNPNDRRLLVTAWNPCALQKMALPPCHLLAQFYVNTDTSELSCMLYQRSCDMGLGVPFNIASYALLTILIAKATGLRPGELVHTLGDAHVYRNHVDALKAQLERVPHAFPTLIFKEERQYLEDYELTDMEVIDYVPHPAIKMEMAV

TcDHFR = TcDHFR (Trypanosoma cruzi, UniProt Q27793); assay: TcDHFR inhibition assay; assay type: biochemical, T. cruzi
Chain of TcDHFR (Q27793 whole entry): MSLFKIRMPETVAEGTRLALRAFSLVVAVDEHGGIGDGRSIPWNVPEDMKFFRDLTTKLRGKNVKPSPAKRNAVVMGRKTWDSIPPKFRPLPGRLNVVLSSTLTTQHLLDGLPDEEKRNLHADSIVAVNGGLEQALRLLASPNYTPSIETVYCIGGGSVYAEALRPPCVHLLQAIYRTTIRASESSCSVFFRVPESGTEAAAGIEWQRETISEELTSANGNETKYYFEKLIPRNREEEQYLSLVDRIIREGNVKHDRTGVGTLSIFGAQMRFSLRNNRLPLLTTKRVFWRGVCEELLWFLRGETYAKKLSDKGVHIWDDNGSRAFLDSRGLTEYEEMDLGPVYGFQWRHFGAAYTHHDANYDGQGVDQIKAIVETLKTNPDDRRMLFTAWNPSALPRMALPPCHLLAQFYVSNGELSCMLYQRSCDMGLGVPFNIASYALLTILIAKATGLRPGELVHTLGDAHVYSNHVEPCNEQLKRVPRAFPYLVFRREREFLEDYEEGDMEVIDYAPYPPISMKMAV

T. brucei [3] = settings: read-out: T. brucei EC50; cited from earlier work
T. brucei [4] = settings: read-out: growth of parasites EC50; mean value from four diverse culture media; cited from earlier work
[5] = read-out: T. brucei EC50 (μM) folate deficiency

Structure (SMILES) | Ki (TbPTR1) [µM] | Ki (hTS) [µM] | EC50 enhancement in folate deficiency medium versus standard medium ([1]; T. brucei, 23.3 μM to 5.4 nM) [fold] | Ki (hDHFR) [µM] | EC50 ([1]; read-out: T. brucei EC50 (μM)) [µM] | EC50 [1, 5] [µM] | EC50 [2] [µM] | Ki (TbTS) [µM] | Ki (TbDHFR) [µM] | Ki (LmDHFR) [µM] | Ki (TcDHFR) [µM] | drop-off in potency TcDHFR versus TbDHFR (TcDHFR; Ki TcDHFR versus Ki TbDHFR) [fold] | EC50 (T. brucei [3]) [µM] | EC50 (T. brucei [4]) [µM]
N=C(N)Nc1nc2cc(Cl)c(Cl)cc2[nH]1 [2c, 5,6-Dichloro-2-guanidinobenzimidazole] | 3.23 | > 500 | – | 1.51 | 7.8 | 6.52 | 22.5 | 50.3 | 0.66 | 1.58 | – | – | – | –
Cc1cc2nc(NC(=N)N)[nH]c2cc1C [2g, 5,6-Dimethyl-2-guanidinobenzimidazole] | 54 | > 500 | – | 3.55 | 14.5 | 13.8 | > 20 | 18.2 | 0.009 | 1.04 | 0.6 | 67 | – | –
CCCCCCCCCCCCCCCCOP(=O)([O-])OCC[N+](C)(C)C [MLF, miltefosine, reference compound] | – | – | – | – | – | – | 10.9 | – | – | – | – | – | – | –
N=C(N)c1ccc(OCCCCCOc2ccc(C(=N)N)cc2)cc1 [PENT, pentamidine, reference compound] | – | – | – | – | 0.0041 | – | – | – | – | – | – | – | – | –
CCc1nc(N)nc(N)c1-c1ccc(Cl)cc1 [Pyr, pyrimethamine, reference compound] | – | 11.8 | – | – | 17.3 | 2.08 | 99.2 | – | – | – | – | – | – | –
Cc1ccc2nc(N)[nH]c(=O)c2c1Sc1ccncc1 [nolatrexed] | – | – | – | – | – | – | – | – | – | – | – | – | – | ~32

Continued, in another order:

Ki (TbPTR1) [µM] | Ki (hTS) [µM] | EC50 enhancement in folate deficiency medium versus standard medium ([1]; T. brucei, 23.3 μM to 5.4 nM) [fold] | Structure (SMILES) | Ki (hDHFR) [µM] | EC50 ([1]; read-out: T. brucei EC50 (μM)) [µM] | EC50 [1, 5] [µM] | EC50 [2] [µM] | Ki (TbTS) [µM] | Ki (TbDHFR) [µM] | Ki (LmDHFR) [µM] | Ki (TcDHFR) [µM] | drop-off in potency TcDHFR versus TbDHFR (TcDHFR; Ki TcDHFR versus Ki TbDHFR) [fold] | EC50 (T. brucei [3]) [µM] | EC50 (T. brucei [4]) [µM]
13.3 | > 500 | – | N=C(N)Nc1nc2ccccc2[nH]1 [2a, 2-Guanidinobenzimidazole] | 2.21 | > 20 | > 20 | > 20 | 23.6 | 0.029 | – | – | – | – | –
4.94 | > 500 | – | N=C(N)Nc1nc2cc(Cl)cc(Cl)c2[nH]1 [2d, 4,6-Dichloro-2-guanidinobenzimidazole] | 4.36 | 2.91 | 5.97 | 6.62 | 20.3 | 0.113 | – | – | – | – | –
4.16 | – | – | CC1(C)N=C(N)N=C(N)N1c1ccc(Cl)cc1 [Cyc, cycloguanil, reference compound] | – | > 80 | 27.2 | > 80 | – | – | – | – | – | > 25 | –
– | – | 4300 | CN(Cc1cnc2nc(N)nc(N)c2n1)c1ccc(C(=O)N[C@@H](CCC(=O)O)C(=O)O)cc1 [MTX, methotrexate, reference compound] | – | 23.3 | 0.0054 | – | – | – | – | – | – | – | –

Reference: article PMC11537224 (ACS Infectious Diseases, 2024)
